Read-outs that look alike come from different tables or passages of the source. Marks after values point to notes of the source that are not given here.
Assays:
P. falciparum strain 3D7 = assay: Inhibitor susceptibility dose-response assay (SYBR-Green I), P. falciparum 3D7; assay type: cell-based, Plasmodium falciparum; conditions: Plasmodium falciparum, read-out: IC50 (S.D.), P. falciparum-3D7
Experimental: (§1) The P. falciparum strains 3D7 and Dd2 were obtained from the Walter and Eliza Hall Institute (Melbourne, Australia) and the Malaria Research and Reference Reagent Resource, respectively. […] B. divergens parasites were maintained and assayed in mixed stages without synchronization.
(§2) Ring-stage P. falciparum (1%-parasitemia starting, 1%-hematocrit) and asynchronous B.divergens (0.5%-parasitemia starting, 3%-hematocrit) were incubated with plated compounds for 72h, and ring-stage P. knowlesi (1%-parasitemia starting, 1%-hematocrit) for 48h, before lysis and staining with dye. To quantify the species-specificity of the inhibitors, we divided the range of IC50s across the 4 test lines by the average IC50 across the same lines: inhibitors with increased scores show species-specific activity and reduced scores indicate broad-spectrum, pan-species activity.

P. falciparum strain Dd2 = assay: Inhibitor susceptibility dose-response assay (SYBR-Green I), P. falciparum Dd2; assay type: cell-based, Plasmodium falciparum; conditions: Plasmodium falciparum, read-out: IC50 (S.D.), P. falciparum-Dd2
Experimental: as §1, §2

[1] = test system: BdC9 line of B. divergens; assay: Inhibitor susceptibility dose-response assay (SYBR-Green I), B. divergens; assay type: cell-based, Babesia divergens; conditions: for IC50: Babesia divergens, read-out: IC50 (S.D.), B. divergens; for fold higher doses required for 50% inhibition of B. divergens than of the Plasmodium spp. lines: B. divergens vs Plasmodium spp. lines
Experimental: as §1, §2

293T = test system: 293T; design: method as in PMID 19662183; conditions: cellular proliferation ref PMID 19662183; read-out: Micromolar IC50 (293T); cited from earlier work
in vitro = conditions: human
From the text: (§3) We analyzed samples using a volumetric MACSQuant Analyzer Flow Cytometer (Miltenyi Biotec), manually resuspending each row immediately prior to sample uptake. We recorded 10,000 total events for each condition at the instrument-defined low flow rate. We assessed all compounds in 2 separate experiments with blood from different donors. […] All samples were gated for single cell events.

P. knowlesi YH1 strain = assay: microbe, parasite or virus in culture; assay type: cell-based, Plasmodium knowlesi; conditions: Plasmodium knowlesi, 48 h, read-out: IC50 (S.D.), P. knowlesi
Experimental: as §1, §2

K562 = test system: K562; design: method as in PMID 19662183; conditions: cellular proliferation ref PMID 19662183; read-out: Micromolar IC50 (K562); cited from earlier work
uninfected RBCs [2] = assay: Cellular phosphatidylserine exposure assay (annexin V flow cytometry);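 further: flow cytometry recording 10,000 events per condition, gated on single cells, with the two experiments using blood from separate donors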
From the text: as §3

SW1990 = test system: SW1990; design: method as in PMID 27487486; conditions: cellular proliferation ref PMID 27487486; read-out: Micromolar IC50 (SW1990); cited from earlier work
Plasmodium spp. lines = assay: Inhibitor susceptibility assays, summary over the Plasmodium spp. lines; assay type: cell-based; conditions: for IC50: approximate value given in text for the Plasmodium spp. lines, read-out: IC50 against the Plasmodium spp. lines; for antiparasitic activity in vitro, in words, Plasmodium spp.: Plasmodium spp. parasites
From the text: The P. falciparum strains 3D7 and Dd2 were obtained from the Walter and Eliza Hall Institute (Melbourne, Australia) and the Malaria Research and Reference Reagent Resource, respectively. The P. knowlesi YH1 strain adapted for growth in human erythrocytes and the BdC9 line of B. divergens were previously reported ([Lim et al., 2013]; [Rezvani et al., 2022]). All parasite lines were maintained in continuous culture in human erythrocytes O+ purchased from a commercial source (Research Blood Components, Boston USA) in RPMI-1640 medium as described (eg [Rezvani et al., 2022]), typically at 2%-hematocrit. Plasmodium parasites were synchronized using sorbitol (5% [wt/vol] for both P. falciparum and P. knowlesi; for P. knowlesi, with addition of 20 mM Na-HEPES and 0.1 mg/ml BSA) ([Lambros and Vanderberg, 1979]) at least once in the week prior to assays. B. divergens parasites were maintained and assayed in mixed stages without synchronization.
as §2, with “We carried out dose-response assays in 384-well plates (40 µl assay volume) for measurement with SYBR-Green I dye ([Mandt et al., 2019]), with test compounds pre-printed into wells via use of a D300 Digital Dispenser (Hewlett-Packard). Ring-stage” for “Ring-stage”

H2228 = test system: H2228; design: method as in PMID 30333870; conditions: cellular proliferation ref PMID 30333870; read-out: Micromolar IC50 (H2228); cited from earlier work
[3] = experimental logP ref https://go.drugbank.com/drugs/DB08865; cited from earlier work
P. falciparum (3D7) = assay: Assay for inhibition of parasite proliferation via RBC-targeting (transient exposure of RBCs, wash, then infection); assay type: cell-based, Plasmodium falciparum; conditions: transient vs continued exposure; dose-response format where stated, n=3
Experimental: All plates were frozen for storage before assay. For assay, duplicate plates were preincubated with donor O+ RBCs at 2% hematocrit at 37°C in 50µL for 4-5 hours. Following preincubation, one but not the other plate in each pair was washed 4X in complete RPMI to dilute inhibitor. We transferred RBCs from both washed and unwashed plates to black, clear bottom 96-well plates (Corning Cat. No. 3904) and supplemented these suspensions with MACS-purified P. falciparum (3D7) schizonts for a starting parasitemia of 0.1% - 0.25% at 1% hematocrit. Following 72h incubation in standard culture conditions, samples were processed for SYBR-Green I signal ([Mandt et al., 2019]). […] To identify host-targeting compounds, we compared DMSO-treated to inhibitor-treated samples (Students t-test, paired). We carried out the assay with 1 µM mefloquine (Sigma-Aldrich Cat. No. M2319) as a control for reversible inhibition. All assays were conducted in biological triplicate, with each experiment utilizing different donor RBCs. For select compounds, we carried out this same assay in a dose-response series (n=3 experiments). Following normalization to DMSO-controls, we assessed inhibitor activity following transient exposure of RBCs by Two-Way ANOVA tests for repeated measures (Graphpad Prism v9): high P values indicate support for the null hypothesis that dose-dependent inhibition is not modulated by dilution after exposure, consistent with a direct inhibitory effect of the compounds on RBCs persisting after transient exposure.

Plasmodium berghei = test system: Plasmodium berghei; design: method as in Wu et al., 2017; conditions: mouse model of severe malaria with Plasmodium berghei ref Wu et al., 2017; cited from earlier work
uninfected RBCs [4] = conditions: 5x P. falciparum 3D7-IC50; 24, 48, 72h
From the text: as §3

P. falciparum 3D7 = assay: Co-administration with established antimalarials, IC50 shift; assay type: cell-based, Plasmodium falciparum; conditions: P<0.05
From the text: Our experimental compound set is weighted toward kinase inhibitors, reflecting the high degree of small molecule development in this target space.

MEF = test system: MEF; design: method as in PMID 29336889; conditions: cellular proliferation ref PMID 29336889; read-out: Micromolar IC50 (MEF); cited from earlier work
[5] = 3D7, 72h, ring-stage, n=3 experiments (or 2 where indicated with *)
[6] = DD2, 72h, ring-stage, n=3 experiments (or 2 where indicated with *)
[7] = 72h, asynchronous, n=3 experiments (or 2 where indicated with *)
[8] = uninfected RBCs (red blood cells), 1% hematocrit
[9] = 24h, 5x P. falciparum 3D7-IC50, % of RBCs, mean of 2 experiments
[10] = 5x P. falciparum 3D7-IC50, % of RBCs, mean of 2 experiments
[11] = 72h, 5x P. falciparum 3D7-IC50, % of RBCs, mean of 2 experiments

SMILES	IC50 (P. falciparum strain 3D7; [5])	IC50 (P. falciparum strain Dd2; [6])	IC50 [1, 7]	hemolysis at 24 h, 5 x P. falciparum 3D7-IC50 (in vitro; [8])	hemolysis at 48 h, 5 x P. falciparum 3D7-IC50 (in vitro; [8])	hemolysis at 72 h, 5 x P. falciparum 3D7-IC50 (in vitro; [8])	IC50 (P. knowlesi YH1 strain)	Phosphatidylserine exposure (%) 24h (uninfected RBCs [2]; [9])	Phosphatidylserine exposure (%) 48h (uninfected RBCs [2]; [10])	Phosphatidylserine exposure (%) 72h (uninfected RBCs [2]; [11])	IC50 (P. falciparum strain 3D7; 3D7, 72 h)	IC50 (P. falciparum strain Dd2; DD2, 72 h)	fold higher doses required for 50% inhibition of B. divergens than of the Plasmodium spp. lines [1]	IC50 ([1]; 72 h)	IC50 (Plasmodium spp. lines)	antiparasitic activity in vitro, in words, B. divergens [1]	antiparasitic activity in vitro, in words, Plasmodium spp. (Plasmodium spp. lines)	also measured
Cc1ccc(NC(=O)c2ccc(CN3CC[C@H](N(C)C)C3)c(C(F)(F)F)c2)cc1Nc1nccc(-c2cncnc2)n1 [Bafetinib]	2000 nM	3000 nM	12000 nM	1%	6%	4%	2000 nM	2%	2%	4%	–	–	–	–	–	–	–	IC50 (293T): 2.2 nM; IC50 (K562): 1.1 nM
CCCC[C@@H](C=O)NC(=O)[C@H](CC(C)C)NC(=O)OCc1ccccc1 [Calpeptin]	–	–	–	0%	8%	17%	900 nM	2%	2%	5%	1000 nM	1300 nM	> 30 fold	40000 nM	~1000 nM	–	–	IC50 (SW1990): 74200 nM
C[C@@H](Oc1cc(-c2cnn(C3CCNCC3)c2)cnc1N)c1c(Cl)ccc(F)c1Cl [Crizotinib]	–	–	–	–	–	–	800 nM	–	2%	–	700 nM	140 nM	–	3000 nM	–	single-digit micromolar activity	potent submicromolar activity	IC50 (H2228): 311 nM; logP (octanol-water partition coefficient), experimental [3]: Crizotinib [drawing 15] (450.3; 1.83^2); hemolysis at 24 h, 5 x P. falciparum 3D7-IC50 (in vitro): 1%; hemolysis at 48 h, 5 x P. falciparum 3D7-IC50 (in vitro): 9%; hemolysis at 72 h, 5 x P. falciparum 3D7-IC50 (in vitro): 14%; Phosphatidylserine exposure (%) 24h (uninfected RBCs [2]): 1%; Phosphatidylserine exposure (%) 72h (uninfected RBCs [2]): 5%
CC(=O)Nc1cccc(-n2c(=O)n(C3CC3)c(=O)c3c(Nc4ccc(I)cc4F)n(C)c(=O)c(C)c32)c1 [Trametinib]	90 nM	110 nM	6000 nM	-1%	7%	15%	100 nM	2%	2%	5%	–	–	> 30 fold	–	~100 nM	single-digit micromolar activity	potent submicromolar activity	inhibitory activity following transient exposure of RBCs, in words (P. falciparum (3D7)): does not persist beyond transient exposure; survival of infected mice (Plasmodium berghei): improve survival of infected mice; hemolysis of RBCs, in words (uninfected RBCs [4]): similarly low levels; reduction in the IC50 of chloroquine in combination with fixed, sublethal dose of test compound (P. falciparum 3D7): ≤ 2 fold; reduction in the IC50 of mefloquine in combination with fixed, sublethal dose of test compound (P. falciparum 3D7): ≤ 2 fold; PS exposure on RBCs, in words (uninfected RBCs [2]; 5x P. falciparum 3D7-IC50, 24, 48, 72h): similarly low levels; IC50 (MEF): 1.6 to 4.8 nM

From article PMC10988762, “Inhibition of malaria and babesiosis parasites by putative red blood cell targeting small molecules” (Frontiers in Cellular and Infection Microbiology, 2024)
